Experiments:
[1] = DRUGMATRIX: Glutamate, NMDA, Agonism radioligand binding (ligand: [3H] CGP-39653); type: cell membranes, Rattus norvegicus, Wistar, Cerebral cortex, Membrane; conditions: Not Active = under 50% inhibition at 10 µM
[2] = DRUGMATRIX: Serotonin (5-Hydroxytryptamine) 5-HT3 radioligand binding (ligand: [3H] GR-65630); type: cell membranes, Membrane; conditions: hek293; Not Active = under 50% inhibition at 10 µM
Calcitonin receptor = target: T1, Calcitonin receptor (Homo sapiens, UniProt P30988); type: cell membranes, Membrane; conditions: t47d; also: in other assays of this panel Not Active means under 50% inhibition at 10 µM
T1 sequence (P30988 whole entry): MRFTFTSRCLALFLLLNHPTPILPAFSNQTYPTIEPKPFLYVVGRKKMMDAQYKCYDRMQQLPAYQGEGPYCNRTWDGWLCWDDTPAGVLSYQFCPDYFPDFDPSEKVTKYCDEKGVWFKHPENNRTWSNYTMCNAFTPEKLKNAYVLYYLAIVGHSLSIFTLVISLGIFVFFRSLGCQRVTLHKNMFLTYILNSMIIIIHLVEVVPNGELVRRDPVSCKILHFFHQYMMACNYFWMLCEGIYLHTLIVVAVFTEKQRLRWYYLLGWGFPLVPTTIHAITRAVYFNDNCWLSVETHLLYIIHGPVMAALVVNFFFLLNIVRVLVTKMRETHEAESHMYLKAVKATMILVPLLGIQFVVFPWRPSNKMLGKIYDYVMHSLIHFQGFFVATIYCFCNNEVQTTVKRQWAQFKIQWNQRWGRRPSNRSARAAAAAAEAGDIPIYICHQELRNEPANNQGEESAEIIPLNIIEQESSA

Melanocortin receptor 4 = Melanocortin receptor 4 (Homo sapiens, UniProt P32245); type: cell membranes, Membrane; conditions: hek293; also: in other assays of this panel Not Active means under 50% inhibition at 10 µM
Melanocortin receptor 4, sequence (P32245 whole entry): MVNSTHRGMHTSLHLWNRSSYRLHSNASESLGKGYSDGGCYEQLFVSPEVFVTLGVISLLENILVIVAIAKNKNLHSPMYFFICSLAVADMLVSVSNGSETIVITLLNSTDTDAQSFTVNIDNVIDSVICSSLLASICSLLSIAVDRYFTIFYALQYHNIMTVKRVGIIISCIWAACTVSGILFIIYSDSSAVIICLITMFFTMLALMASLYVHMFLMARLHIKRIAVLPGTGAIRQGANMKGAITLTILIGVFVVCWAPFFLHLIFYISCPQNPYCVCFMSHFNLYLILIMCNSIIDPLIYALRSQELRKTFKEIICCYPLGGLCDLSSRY

[3] = DRUGMATRIX: GABAA, Flunitrazepam, Central radioligand binding (ligand: [3H] Flunitrazepam); type: cell membranes, Rattus norvegicus, Wistar, Brain, Membrane; conditions: Not Active = under 50% inhibition at 10 µM
Histamine H2 receptor = Histamine H2 receptor (Homo sapiens, UniProt P25021); type: cell membranes, CHO-K1, Membrane; also: in other assays of this panel Not Active means under 50% inhibition at 10 µM
Histamine H2 receptor, sequence (P25021 whole entry): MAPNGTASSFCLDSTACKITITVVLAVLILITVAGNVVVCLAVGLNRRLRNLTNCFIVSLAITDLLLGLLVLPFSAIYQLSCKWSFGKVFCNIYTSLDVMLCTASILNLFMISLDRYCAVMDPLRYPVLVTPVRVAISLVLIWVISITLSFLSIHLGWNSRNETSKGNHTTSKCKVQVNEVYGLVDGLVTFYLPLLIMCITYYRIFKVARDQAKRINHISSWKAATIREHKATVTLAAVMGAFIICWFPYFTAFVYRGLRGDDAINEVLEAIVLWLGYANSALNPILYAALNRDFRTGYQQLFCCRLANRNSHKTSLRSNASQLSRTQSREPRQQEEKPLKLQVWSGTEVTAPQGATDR

Substance-K receptor = target: T2, Substance-K receptor (Homo sapiens, UniProt P21452); type: cell membranes, CHO, Membrane; conditions: for Ki: read-out: Ki; as to all read-outs here: in other assays of this panel Not Active means under 50% inhibition at 10 µM
T2 sequence (P21452 whole entry): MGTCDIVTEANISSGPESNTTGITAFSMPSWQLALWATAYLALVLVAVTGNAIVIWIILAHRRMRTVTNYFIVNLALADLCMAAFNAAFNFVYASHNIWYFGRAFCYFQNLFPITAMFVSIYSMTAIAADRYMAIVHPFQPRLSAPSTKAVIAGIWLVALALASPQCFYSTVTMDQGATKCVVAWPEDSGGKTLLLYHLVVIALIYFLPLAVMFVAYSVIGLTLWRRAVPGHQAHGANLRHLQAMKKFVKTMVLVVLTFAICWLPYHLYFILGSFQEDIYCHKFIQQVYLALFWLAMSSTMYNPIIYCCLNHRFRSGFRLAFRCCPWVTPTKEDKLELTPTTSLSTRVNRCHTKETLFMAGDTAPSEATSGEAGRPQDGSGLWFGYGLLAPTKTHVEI

SMILES	IC50 [1]	Ki [1]	IC50 [2]	Ki [2]	IC50 (Calcitonin receptor)	IC50 (Melanocortin receptor 4)	IC50 [3]	Ki [3]	IC50 (Histamine H2 receptor; cho-k1)	IC50 (Substance-K receptor; cho)	IC50 (Substance-K receptor; read-out: IC50) [nM]	Ki (Substance-K receptor) [nM]	IC50 (Histamine H2 receptor; read-out: IC50) [nM]	Ki (Histamine H2 receptor; read-out: Ki) [nM]
Oc1ccccc1 [PHENOL]	Not Active	Not Active	Not Active	Not Active	Not Active	Not Active	Not Active	Not Active	Not Active	Not Active	–	–	–	–
Oc1ncnc2[nH]ncc12 [ALLOPURINOL]	Not Active	Not Active	Not Active	Not Active	Not Active	Not Active	Not Active	Not Active	Not Active	Not Active	–	–	–	–
COC(=O)Nc1nc2ccc(Sc3ccccc3)cc2[nH]1 [FENBENDAZOLE]	Not Active	Not Active	Not Active	Not Active	Not Active	Not Active	Not Active	Not Active	Not Active	Not Active	–	–	–	–
C[C@@H]1[C@H](O)[C@@H](C)/C=C/C=C/C=C/C=C/C=C/C=C/C=C/[C@H](O[C@@H]2O[C@H](C)[C@@H](O)[C@H](N)[C@@H]2O)C[C@@H]2O[C@](O)(C[C@@H](O)C[C@@H](O)[C@H](O)CC[C@@H](O)C[C@@H](O)CC(=O)O[C@H]1C)C[C@H](O)[C@H]2C(=O)O [AMPHOTERICIN B]	Not Active	Not Active	Not Active	Not Active	Not Active	Not Active	Not Active	Not Active	Not Active	Not Active	–	–	–	–
CCO [ALCOHOL]	Not Active	Not Active	Not Active	Not Active	Not Active	Not Active	Not Active	Not Active	Not Active	Not Active	–	–	–	–
COc1cc(/C=C/C(=O)O)ccc1O [FERULATE]	Not Active	Not Active	Not Active	Not Active	Not Active	Not Active	Not Active	Not Active	Not Active	Not Active	–	–	–	–
CNC[C@H](O)c1ccc(O)c(O)c1 [EPINEPHRINE]	–	–	–	–	Not Active	Not Active	Not Active	Not Active	Not Active	Not Active	–	–	–	–
CC1(COc2ccc(CC3SC(=O)NC3=O)cc2)CCCCC1 (centres undefined) [CIGLITAZONE]	Not Active	Not Active	Not Active	Not Active	Not Active	Not Active	Not Active	Not Active	Not Active	–	12600	4190	–	–
NC(N)=Nc1nc(CSCCC(N)=NS(N)(=O)=O)cs1 [FAMOTIDINE]	Not Active	Not Active	Not Active	Not Active	Not Active	Not Active	Not Active	Not Active	–	Not Active	–	–	42	41
Nc1nc(F)nc2c1ncn2[C@@H]1O[C@H](CO)[C@@H](O)[C@@H]1O [FLUDARABINE]	Not Active	Not Active	Not Active	Not Active	Not Active	Not Active	Not Active	Not Active	Not Active	Not Active	–	–	–	–
NC(=O)NC(=O)Cc1ccccc1 [PHENACEMIDE]	Not Active	Not Active	Not Active	Not Active	Not Active	Not Active	Not Active	Not Active	Not Active	Not Active	–	–	–	–
Nc1ccc(C(=O)O)c(O)c1 [AMINOSALICYLIC ACID]	Not Active	Not Active	Not Active	Not Active	Not Active	Not Active	Not Active	Not Active	Not Active	Not Active	–	–	–	–
O=c1[nH]cnc2c1ncn2[C@H]1CC[C@@H](CO)O1 [DIDANOSINE]	Not Active	Not Active	Not Active	Not Active	Not Active	Not Active	Not Active	Not Active	Not Active	Not Active	–	–	–	–
NC(=O)CN1CCCC1=O	Not Active	Not Active	Not Active	Not Active	Not Active	Not Active	Not Active	Not Active	Not Active	Not Active	–	–	–	–
Clc1cc(Cl)c(OCC#CI)cc1Cl [HALOPROGIN]	Not Active	Not Active	Not Active	Not Active	Not Active	Not Active	Not Active	Not Active	Not Active	–	1470	491	–	–
O=C(NCCN1CCOCC1)c1ccc(Cl)cc1 [MOCLOBEMIDE]	Not Active	Not Active	Not Active	Not Active	Not Active	Not Active	Not Active	Not Active	Not Active	Not Active	–	–	–	–
Cc1c(N)nc([C@H](CC(N)=O)NC[C@H](N)C(N)=O)nc1C(=O)N[C@H](C(=O)N[C@H](C)[C@@H](O)[C@H](C)C(=O)N[C@H](C(=O)NCCc1nc(-c2nc(C(=O)NCCC[S+](C)C)cs2)cs1)[C@@H](C)O)[C@@H](O[C@@H]1O[C@@H](CO)[C@@H](O)[C@H](O)[C@@H]1O[C@H]1O[C@H](CO)[C@@H](O)[C@H](OC(N)=O)[C@@H]1O)c1c[nH]cn1.[Br-] [BLEOMYCIN A2]	Not Active	Not Active	Not Active	Not Active	Not Active	Not Active	Not Active	Not Active	Not Active	Not Active	–	–	–	–
CC(C)Cc1ccc([C@H](C)C(=O)O)cc1 [DEXIBUPROFEN]	Not Active	Not Active	Not Active	Not Active	Not Active	Not Active	Not Active	Not Active	Not Active	Not Active	–	–	–	–
COc1ccc(C[C@H](N)C(=O)N[C@H]2[C@@H](O)[C@H](n3cnc4c(N(C)C)ncnc43)O[C@@H]2CO)cc1 [PUROMYCIN]	Not Active	Not Active	Not Active	Not Active	Not Active	Not Active	Not Active	Not Active	Not Active	Not Active	–	–	–	–
CCC1(c2ccccc2)C(=O)NC(=O)NC1=O [PHENOBARBITAL]	Not Active	Not Active	Not Active	Not Active	Not Active	Not Active	Not Active	Not Active	Not Active	Not Active	–	–	–	–
O=C1c2ccccc2C(=O)C1c1ccccc1 [PHENINDIONE]	Not Active	Not Active	Not Active	Not Active	Not Active	Not Active	Not Active	Not Active	Not Active	Not Active	–	–	–	–
OC[C@H]1OC2C3[C@@H](CO)OC(O[C@H]4[C@H](O)[C@@H](O)[C@@H](O[C@H]5[C@H](O)[C@@H](O)[C@@H](O[C@H]6[C@H](O)[C@@H](O)[C@@H](O[C@H]7[C@H](O)[C@@H](O)[C@@H](O[C@H]8[C@H](O)[C@@H](O)[C@@H](O[C@H]9[C@H](O)[C@@H](O)C(OC1[C@H](O)[C@H]2O)O[C@@H]9CO)O[C@@H]8CO)O[C@@H]7CO)O[C@@H]6CO)O[C@@H]5CO)O[C@@H]4CO)[C@H](O)[C@H]3O	Not Active	Not Active	Not Active	Not Active	Not Active	Not Active	Not Active	Not Active	Not Active	Not Active	–	–	–	–
CO[C@H]1O[C@@H]2O[C@@]3(C)CC[C@H]4[C@H](C)CC[C@@H]([C@H]1C)[C@@]24OO3	Not Active	Not Active	Not Active	Not Active	Not Active	Not Active	Not Active	Not Active	Not Active	Not Active	–	–	–	–
